In experiment [1] the test system is lymphocytic leukemia P388. The experiment can be described thus: in vivo lymphocytic leukemia P388 test. Particulars: Mus musculus, P388, ip, 120 h, read-out: P388 in vivo T/C × 100; for response vs control in vivo at 50 mg/kg: Dose 50.00 mg/kg intraperitoneally once daily for five days; for response vs control in vivo at 6.25 mg/kg: Dose 6.25 mg/kg intraperitoneally once daily for five days; for response vs control in vivo at 12.5 mg/kg: Dose 12.50 mg/kg intraperitoneally once daily for five days; for response vs control in vivo at 25 mg/kg: Dose 25.00 mg/kg intraperitoneally once daily for five days; for response vs control in vivo at 3.12 mg/kg: Dose 3.12 mg/kg intraperitoneally once daily for five days. Also on record: species or system mice. The gist of the method: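 CD2F mice, 6-7 per group, inoculated IP with P388 leukemia ascitic cells, then dosed IP once daily for five consecutive days at various doses. Survival and weights tracked for 30 days; activity expressed as treated/control survival time ×100, with ≥125 as efficacy criterion. Deaths of all animals within four days flagged as toxic.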

The subject of another experiment is HCT-8 cells. The experiment can be described thus: in vitro proliferating human colon adenocarcinoma (HCA) cell screen. In kind it is cell-based. Particulars: Table 1, 60 to 65 hours with compound, 50% inhibition of growth, read-out: HCA—3 in vitro ID50. The gist of the method: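 HCT-8 cells grown 48 h at 37 °C in RPMI 1640/10% FCS, then exposed to compound for a further 60–65 h. Nuclei counted by Coulter counter after lysis; percent growth per concentration gives ID50 as molar concentration causing 50% growth inhibition.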

In the next experiment the test system is Escherichia coli 04863. The experiment can be described thus: in vitro antibacterial/antifungal (ABF) agar-disk diffusion test. In kind it is cell-based. Particulars: read-out: ABF Zone Diameter (cont. in mg/ml) E. Coli; for zone of inhibition at 500 µg/mL: 0.5 mg/ml; for zone of inhibition at 100 µg/mL: 0.1 mg/ml. The method, then: (§1) Still another test protocol is the in vitro antibacterial/antifungal (ABF) test. Compounds are tested for antimicrobial activity in an agar-disk diffusion assay, a standard microbiological technique for testing antibiotics'. After incubation of each culture with a test compound, a zone of inhibition is determined. The zone diameter (mm) of active compounds ranges from a minimum of 13.5 mm to as high as 60 mm, with a greater diameter reflecting higher activity. For convenience, values are reported for two gram-negative bacteria (Aerobacter aerogenes 0126 and Escherichia coli 04863), two gram-positive bacteria (Bacillus subtilis 04555 and Streptococcus faecalis 05045 utilizing AM-09 medium), and one mycelial fungus (Penicillium avellaneum M2988).

Experiment [2] concerns Penicillium avellaneum M2988. The experiment is described as above. In kind it is cell-based. Particulars: Hamigera avellanea, read-out: ABF Zone Diameter (cont. in mg/ml) P. Avell-aneum; for zone of inhibition at 3000 µg/mL: 3 mg/ml. The method, then: as §1
Experiment [3] deals with Aerobacter aerogenes 0126. The description is as above. In kind it is cell-based. Particulars: Klebsiella aerogenes, read-out: ABF Zone Diameter (cont. in mg/ml) A. Aero-genes; for zone of inhibition at 3000 µg/mL: 3 mg/ml; for zone of inhibition at 100 µg/mL: 0.1 mg/ml; for zone of inhibition at 500 µg/mL: 0.5 mg/ml. As to the method:
as §1

Experiment [4] has as its system Streptococcus faecalis 05045. The description is as above. It is filed as cell-based. Particulars: Enterococcus faecalis, AM-09 medium, read-out: ABF Zone Diameter (cont. in mg/ml) S. Fae-calis; for zone of inhibition at 500 µg/mL: 0.5 mg/ml; for zone of inhibition at 1000 µg/mL: 1 mg/ml; for zone of inhibition at 3000 µg/mL: 3 mg/ml. As to the method:
as §1

A further experiment has as its system Bacillus subtilis 04555. The description is as above. It is filed as cell-based. Particulars: read-out: ABF Zone Diameter (cont. in mg/ml) B. Sub-tilis; for zone of inhibition at 3000 µg/mL: 3 mg/ml; for zone of inhibition at 500 µg/mL: 0.5 mg/ml. As to the method:
as §1

A further experiment concerns L1210 cells. The experiment can be described thus: L1210 murine leukemia cell growth inhibition in vitro. Particulars: Mus musculus, 72 h, Table 1, three days incubation, 50% inhibition of growth, read-out: L1210 in vitro ID50. It is filed as cell-based. The gist of the method:
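Murine L1210 leukemia cells (3 x 10^4 cells/ml) in RPMI 1640 with 5% FBS were exposed to drug dilutions for 3 days at 37 °C and 5% CO2. Cells were then Coulter-counted, growth was expressed relative to solvent and medium controls, and ID50 was given in mol/L.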

`CCN(CC)CCn1nc2c3c(c(NCCN4CCOC4=O)ccc31)Sc1ccccc1-2` [CH2CH2N(C2H5)2 /]: the response vs control in vivo at 47.45 mg/kg in experiment [1] (Dose 47.45 mg/kg intraperitoneally once daily for five days) came to 141%. Further, the response vs control in vivo at 50 mg/kg in experiment [1] was 140%. In experiment [1] (Dose 63.28 mg/kg intraperitoneally once daily for five days), the response vs control in vivo at 63.28 mg/kg was determined as 165%. For the same compound, the response vs control in vivo at 84.38 mg/kg in experiment [1] (Dose 84.38 mg/kg intraperitoneally once daily for five days) worked out at 193%. Further, the response vs control in vivo at 100 mg/kg in experiment [1] (Dose 100.00 mg/kg intraperitoneally once daily for five days) is 218%. Further, the figures for the IC50 in the experiment with HCT-8 cells and in the experiment on L1210 cells were 1800 nM and 950 nM, respectively. Besides, the zone of inhibition at 3000 µg/mL in the experiment with Escherichia coli 04863 (3 mg/ml) worked out at 0 mm; in experiment [2], 0 mm; in experiment [3] it was 0 mm; with Bacillus subtilis 04555 it was 13 mm. For the same compound, the zone of inhibition at 500 µg/mL in experiment [4] was found to be 14 mm.
Take `CN(C)CCn1nc2c3c(c(N)ccc31)Sc1ccccc1-2` [CH2CH2N(CH2)2 / NH2]: the response vs control in vivo at 6.25 mg/kg in experiment [1] came to 126%. Further, in experiment [1], the response vs control in vivo at 12.5 mg/kg came out at 160%. The results for the IC50 in the experiment with HCT-8 cells and in the experiment with L1210 cells were 280 nM and 80 nM, respectively. For the same compound, the zone of inhibition at 500 µg/mL in the experiment on Escherichia coli 04863 was 16 mm; in experiment [2] (0.5 mg/ml) it was 17 mm; in the experiment with Bacillus subtilis 04555, 15 mm. The zone of inhibition at 100 µg/mL in experiment [3] stood at 14 mm. Also, in experiment [4], the zone of inhibition at 1000 µg/mL is 20 mm.
With `CCN(CC)CCn1nc2c3c(c([N+](=O)[O-])ccc31)Sc1ccccc1-2` [CH2CH2N(CH2H5)2 / HO2, N,N-Diethyl-5-nitro-2H[1]benzothiopyrano[4,3,2-cd]-indazole-2-ethanamine], the response vs control in vivo at 25 mg/kg in experiment [1] stood at 138%. Besides, in experiment [1], the response vs control in vivo at 50 mg/kg worked out at 170%. Further, the IC50 with HCT-8 cells worked out at 200 nM; in the experiment with L1210 cells it was 56 nM. Also, the zone of inhibition at 1000 µg/mL with Escherichia coli 04863 (1 mg/ml) worked out at 14 mm. The zone of inhibition at 3000 µg/mL in experiment [2] stood at 15 mm; in experiment [3], 0 mm; in experiment [4] it was 14 mm; with Bacillus subtilis 04555 it was 14 mm.
In the case of `CN(C)CCn1nc2c3c(c([N+](=O)[O-])ccc31)Sc1ccccc1-2` [CH2CH2N(CH3)2 / NO2, N,N dimethyl-5-nitro-2H[1]benzothiopyrano[4,3,2-cd]indazole-2-ethanamine], the response vs control in vivo at 12.5 mg/kg in experiment [1] was determined as 158%. Further, the results for the IC50 in the experiment with HCT-8 cells and in the experiment with L1210 cells were 97 nM and 79 nM, respectively. In addition, the figures for the zone of inhibition at 100 µg/mL (in the experiment with Escherichia coli 04863; in experiment [2] (0.1 mg/ml)) were 14 mm and 15 mm, respectively. In experiment [3] (1 mg/ml), the zone of inhibition at 1000 µg/mL stood at 15 mm. Moreover, the zone of inhibition at 3000 µg/mL (in experiment [4]; with Bacillus subtilis 04555) was 15 mm throughout.
Take `NCCn1nc2c3c(c(N)ccc31)Sc1ccccc1-2` [CH2CH2NH2 / NH2, 5-amino-2H[1]benzothiopyrano[4,3,2]-cd]indazole-2-ethanamine]: in experiment [1], the response vs control in vivo at 3.12 mg/kg was found to be 125%, the response vs control in vivo at 6.25 mg/kg worked out at 131% and the response vs control in vivo at 12.5 mg/kg was found to be 160%. Moreover, the IC50 with HCT-8 cells worked out at 320 nM. Further, the zone of inhibition at 500 µg/mL with Escherichia coli 04863 was 19 mm. Further, the zone of inhibition at 3000 µg/mL in experiment [2] is 0 mm. Also, the zone of inhibition at 100 µg/mL in experiment [3] turned out to be 17 mm. The zone of inhibition at 1000 µg/mL in experiment [4] was 15 mm. For the same compound, in the experiment on Bacillus subtilis 04555 (1 mg/ml), the zone of inhibition at 1000 µg/mL is 18 mm. Also, the IC50 in the experiment on L1210 cells was 110 nM.
In the case of `Nc1ccc2c3c(nn2CCNCCO)-c2ccccc2Sc13` [CH2CH2NHCH2CH2OH / NH2], in experiment [1], the response vs control in vivo at 3.12 mg/kg amounted to 135%, the response vs control in vivo at 6.25 mg/kg amounted to 143%, the response vs control in vivo at 12.5 mg/kg turned out to be 159% and the response vs control in vivo at 25 mg/kg came out at 194%. For the same compound, the IC50 in the experiment with HCT-8 cells turned out to be 580 nM. Besides, the zone of inhibition at 500 µg/mL with Escherichia coli 04863 is 17 mm. Further, the zone of inhibition at 3000 µg/mL in experiment [2] is 15 mm. For the same compound, in experiment [3], the zone of inhibition at 500 µg/mL was 16 mm. For the same compound, the zone of inhibition at 1000 µg/mL in experiment [4] was determined as 20 mm. Further, the zone of inhibition at 500 µg/mL with Bacillus subtilis 04555 was found to be 18 mm. The IC50 with L1210 cells was 170 nM.
With `OCCNCCNc1ccc2c3c(nn2CCNCCO)-c2ccccc2Sc13` [CH2CH2NHCH2CH2OH / NHCH2CH2NHCH2CH2OH, 2-[[2-[5-[[2-[(2-Hydroxyethyl)amino]ethyl]amino]-2H[1]benzothiopyrano[4,3,2-cd]indazol-2-yl]ethyl]amino]ethanol], the response vs control in vivo at 0.75 mg/kg in experiment [1] (Dose 0.75 mg/kg intraperitoneally once daily for five days) was 146%. Moreover, the response vs control in vivo at 0.78 mg/kg in experiment [1] (Dose 0.78 mg/kg intraperitoneally once daily for five days) was 153%. Also, the response vs control in vivo at 1.5 mg/kg in experiment [1] (Dose 1.50 mg/kg intraperitoneally once daily for five days) stood at 155%. Further, the response vs control in vivo at 1.56 mg/kg in experiment [1] (Dose 1.56 mg/kg intraperitoneally once daily for five days) came out at 180%. The response vs control in vivo at 3 mg/kg in experiment [1] (Dose 3.00 mg/kg intraperitoneally once daily for five days) is 187%. The response vs control in vivo at 3.12 mg/kg in experiment [1] worked out at 176%. The response vs control in vivo at 6 mg/kg in experiment [1] (Dose 6.00 mg/kg intraperitoneally once daily for five days) turned out to be 218%. Also, in experiment [1], the response vs control in vivo at 6.25 mg/kg turned out to be 195%. Besides, the response vs control in vivo at 12 mg/kg in experiment [1] (Dose 12.00 mg/kg intraperitoneally once daily for five days) came out at 270%. For the same compound, the response vs control in vivo at 12.5 mg/kg in experiment [1] was found to be 271%. The IC50 in the experiment with HCT-8 cells was found to be 480 nM; in the experiment with L1210 cells, 400 nM. Besides, the values for the zone of inhibition at 500 µg/mL (in the experiment with Escherichia coli 04863; in experiment [3]; in the experiment with Bacillus subtilis 04555) were 14 mm, 14 mm and 15 mm, respectively. The zone of inhibition at 3000 µg/mL in experiment [2] and in experiment [4] was 0 mm each time.
As to `O=[N+]([O-])c1ccc2c3c(nn2CCNCCO)-c2ccccc2Sc13` [CH2CH2NHCH2CH2OH / NO2, 2-[[2-(5-Nitro-2H[1]benzothiopyrano[4,3,2-cd]indazol-2-yl)ethyl]amino]ethano], the response vs control in vivo at 6.25 mg/kg in experiment [1] was 148%. For the same compound, the response vs control in vivo at 12.5 mg/kg in experiment [1] was 150%. In addition, the response vs control in vivo at 25 mg/kg in experiment [1] is 197%. For the same compound, the results for the IC50 with HCT-8 cells and with L1210 cells were 100 nM and 20 nM, respectively. The zone of inhibition at 100 µg/mL (in the experiment on Escherichia coli 04863; in experiment [3]) was 16 mm in each case. Also, the zone of inhibition at 3000 µg/mL in experiment [2] amounted to 0 mm. The zone of inhibition at 500 µg/mL in experiment [4] turned out to be 15 mm; in the experiment with Bacillus subtilis 04555, 18 mm.

Values taken from patent EP0114002B1, “Benzothiopyrano(4,3,2,-cd)indazoles, their pharmaceutical compositions and methods for their production” (WARNER-LAMBERT COMPANY, priority 1983, dated 1984).
